One assay relates to PyMT mice. Nature of the assay: TZD and cisplatin treatment of FP635/PyMT (PyMT) mice. In kind it is in vivo, mouse. The procedure:
FIGS. 19A-19F. TZD augments cisplatin sensitivity and correlates with the COL6A3 levels. FIG. 19A. FP635/PyMT mice were given TZD containing chow (supply approx. 20 mg/kg/day, rosiglitazone) or normal-diet (ND) starting at 8-weeks of age, and cisplatin (1 mg/kg) or PBS treatment was initiated at 10 weeks of age (ip., 3 times/week) over the course of tumor progression. Tumor burden was monitored with a fluorescence scanner (IVIS, Caliper life science). Quantified results are represented as mean±SD (n=8-9/group). *p=0.04, ND/CIS vs. TZD/CIS by unpaired student t-test. Metastatic burden was determined by fluorescence signals in lung tissues. FIG. 19B. Primary cancer cells isolated from tumors in PyMT mice were implanted into WT mice. TZD were given 5 days prior to cisplatin treatment (1 mg/kg, every 5 days). Tumor volumes were determined by caliper measurement and represented as mean±SD (n=5-6/group). *p<0.05 and **p<0.001, ND/CIS vs. TZD/CIS by 2-way ANOVA. FIGS. 19C-19D. Total RNA was extracted from tumor tissues in each group. mRNA levels for collagens such as COL1A1, COL6A1, -A2, and -A3 (FIG. 19C), and EMT genes such as E-cadherin, N-cadherin, Vimentin, Snail, Slug, Twist1 and Twist2 (FIG. 19D) were determined by qRT-PCR and normalized with 36B4. Quantitative results represent mean±SD (n=7/group). *p<0.05, **p<0.01, ***p<0.001 ND/PBS vs. ND/CIS; ^###p<0.001 ND/CIS vs. TZD/CIS by 2-way ANOVA. FIGS. 19E-19F. EMT indices were determined by immunostaining with E-Cadherin (FIG. 19E) and Vimentin (FIG. 19F). Cytokeratin (epithelial cells) and DAPI (nucleus) were co-stained. Staining positive area was quantified (multiple images, n=5/group). **p=0.014 (E) and *p=0.015 (F), ND/CIS vs. TZD/CIS by unpaired student t-test. Scale bars: 100 μm.
FIGS. 23A-23B: TZD confers beneficial effects on cisplatin treatment in mammary tumors. Met-1 cancer cells (0.5×10^6 cells/mouse) were implanted into wild-type mice and TZD (20 mg/kg) was given by diet and cisplatin (1 mg/kg) was intraperitoneally (ip.) injected every 5 days from 30 days post implantation (n=8/group). ***p<0.001 vs. ND by 2-way ANOVA. Tumor tissues from PyMT mice given TZD or normal diet (ND) diet were histologically assessed. […] Data represent mean±SD (n=5/group). **p=0.0042 ND vs. TZD by unpaired student t-test. Scales: 50 μm. […] Data represent mean±SD (n=5/group). *p=0.002 ND vs. TZD by unpaired student t-test. Arrows indicate staining positive cells. Scales: 25 μm.
Cisplatin (sigma, 479306) was diluted to 1 mg/ml in PBS and was sonicated briefly before injection. […]
Infrared fluorescence expressing MMTV-PyMT mice (FP635/PyMT) were imaged by IVIS scanner (Caliper lifesciences) and signal intensity was analyzed with Living image v.3.2 (Caliper lifesciences).

The target in a further assay is T1, ETP (Mus musculus, UniProt E9PWQ3).
T1 sequence (E9PWQ3 with tags, fused parts or gaps limits assumed): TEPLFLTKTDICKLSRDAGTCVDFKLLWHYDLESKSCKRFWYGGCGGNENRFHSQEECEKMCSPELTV
Nature of the assay: in vivo Matrigel bioassay (stromal cell recruitment into plugs). Conditions: ETP 100 ng/plug, antibody 20 μg/plug, 2 days after implantation. The procedure:
FIGS. 7A-7I: ETP acts as a chemokine augmenting tumor growth. […] Tumor volume was determined 1 month after implantation (representative images). Data represent mean±SEM (n=5 per group). ***P<0.001, unpaired t test. (FIG. 7B) In vivo Matrigel bioassay. Matrigel (50 μl) was mixed with ETP (100 ng/plug) or PBS and implanted into WT mice in the presence of IgG, 1D11, or 10B6 (20 μg/plug). 2 days after implantation, plugs were excised and stained for FIG. 7H & FIG. 7E. Scale bars: 100 μm. (FIGS. 7C-7H) Cancer cells were plated in the bottom chamber 1 day prior to seeding MS-1 cells (5×10^5 cells/well) and macrophages (1×10^5 cells/well) atop the membrane chamber in Transwell and incubated for 18-24 hours (FIG. 7C). (FIGS. 7D, 7E, 7F, 7G) Representative images of multiple independent experiments. Scale bars: 100 μm. (FIG. 7H) Quantitation (mean±SEM; n=3 per group). ***P<0.001, […], unpaired t test. (FIG. 7I) MS-1 migration assay. MS-1 cells (5×10^5 cells/well) were plated atop the chamber in Transwell and incubated for 24 hours. Chemotaxis was set up by following cell migration from DMEM/serum-free to DMEM/2% FBS/PBS or DMEM/2% FBS/ETP protein (1 μg/well). Images are representative of multiple independent experiments. Data represent mean±SEM (n=3 per group). ***P=0.008, unpaired t test. Scale bars: 100 μm.

For the molecule `N.N.[Cl][Pt][Cl]` [cisplatin, cis-diammine-dichloro-platinum], in the assay on PyMT mice (immunostaining), the “EMT in tumor tissues (loss of E-cadherin or increase in vimentin)” value is given as “significant increase” and the “metallothionein (MT) levels in tumor tissues” value is “significantly increased”. The “mRNA levels of COL6A3 in tumor tissues” value in the assay on PyMT mice (qRT-PCR) is given as “significantly increased”. Moreover, the “mRNA levels for EMT transcription factors (Snail, Slug, Twist1)” value in the assay with PyMT mice (qRT-PCR, tumor tissues) was “significantly increased”.

B1: 10B6: rat anti-mouse endotrophin monoclonal antibody; light chain variable SEQ ID NO: 2, heavy chain variable SEQ ID NO: 4 (antibody, V domains shown)
VH: QVQLQQSGPELAKPGSSVKISCKASGYTFTSYEMHWIKQRPGQGLEWIGYIYPESGSTGYNEKFKGKATLTVDKSSPTAYMQLSSLTPDNSAVYFCTRGLRVLGYVMDVWGHGTSVTVSS
VL: DVQLTQSPSFLSASVGDRVTINCKASQNINKYLNWYQQKLGEAPKRLIYNTNNLQTGIPSRFSGSASGTDYTLTISSLHPEDFATYFCLQHSSLYTFGAGTKLELK
As to B1, the “chemokine activity of ETP (stromal cell recruitment into Matrigel plugs)” value in the assay with ETP is on record as “completely blocked”.

(Values after patent US10975142B2, “Endotrophin neutralization and use thereof” (THE BOARD OF REGENTS OF THE UNIVERSITY OF TEXAS SYSTEM, priority 2013, dated 2021).)
